Measured values as given in patent publication US6849612B2, “Oligonucleotide modulation of cell adhesion” (ISIS Pharmaceuticals, Inc., priority 1993, dated 2005).
Strand notation (5' to 3'): a small letter for the sugar, then the base; units joined by * are phosphorothioate-linked, units joined directly phosphodiester-linked; [ ] holds rarer units or linkages, { } end groups; capitals alone tell only the bases. d = 2'-deoxy (DNA)

Tests used:
[1] = tested on: leukocyte migration; experiment: Leukocyte migration into carrageenan-soaked sponges in mice; type: in vivo, mouse; settings: 3 mg/kg oral, after surgery, 6-8 hours later and at 21 hours; vs vehicle control
[2] = tested on: ICAM-1; experiment: ELISA of ICAM-1 cell surface expression in C8161 human melanoma cells; type: cell-based; settings: 15 μg/ml Lipofectin, 5 ng/ml TNF-α 16 hours
Procedure: (§1) ICAM-1 expression on the cell surface was measured by ELISA. Cells were treated with increasing concentrations of antisense oligonucleotides in the presence of 15 μg/ml Lipofectin for 4 hours at 37° C. ICAM-1 expression was induced by incubation with 5 ng/ml TNF-α for 16 hours. Cells were washed 3× in DPBS and fixed for 20 minutes in 2% formaldehyde. Cells were washed in DPBS, blocked with 2% BSA for 1 hour at 37° C. and incubated with ICAM-1 monoclonal antibody 84H10 (AMAC, Inc., Westbrook, Me.). Detection of bound antibody was determined by incubation with a biotinylated goat anti-mouse IgG followed by incubation with […] streptavidin and developed with chlorophenol red-β-D-galactopyranoside and quantified by absorbance at 575 nm. ICAM-1 mRNA levels were measured by Northern blot analysis.
The data were expressed as percentage of control activity, calculated as follows: (ICAM-1 expression for oligonucleotide-treated, cytokine-induced cells)−(basal ICAM-1 expression)/(ICAM-1 cytokine-induced expression)−(basal ICAM-1 expression)×100.

[3] = tested on: human corneal donor buttons; experiment: Human corneal donor buttons stored in OPTISOL with ISIS 2302
Procedure: Eleven human corneal donor buttons were stored in TM OPTISOL™ for 8 days and used as the control group. Additional corneal buttons were used for the experimental group and were stored in OPTISOL™ with either 200 μg/ml ISIS 2302 (n=10) or 400 μg/ml ISIS 2302 (n=8). Endothelial cell density was evaluated by specular microscopy. After 8 days, all corneas were prepared for SEM and photographs were taken of endothelial and epithelial surfaces.

[4] = tested on: ICAM-1; experiment: ELISA of ICAM-1 expression in primary human keratinocytes; type: cell-based
Procedure: (§2) Expression of ICAM-1, VCAM-1 and ELAM-1 on the surface of cells can be quantitated using specific monoclonal antibodies in an ELISA. Cells are grown to confluence in 96 well microtiter plates. The cells are stimulated with either interleukin-1 or tumor necrosis factor for 4 to 8 hours to quantitate ELAM-1 and 8 to 24 hours to quantitate ICAM-1 and VCAM-1. Following the appropriate incubation time with the cytokine, the cells are gently washed three times with a buffered isotonic solution containing calcium and magnesium such as Dulbecco's phosphate buffered saline (D-PBS). The cells are then directly fixed on the microtiter plate with 1 to 2% paraformaldehyde diluted in D-PBS for 20 minutes at 25° C. The cells are washed again with D-PBS three times. Nonspecific binding sites on the microtiter plate are blocked with 2% bovine serum albumin in D-PBS for 1 hour at 37° C. Cells are incubated with the appropriate monoclonal antibody diluted in blocking solution for 1 hour at 37° C. Unbound antibody is removed by washing the cells three times with D-PBS. Antibody bound to the cells is detected by incubation with a 1:1000 dilution of biotinylated goat anti-mouse IgG (Bethesda Research Laboratories, Gaithersburg, Md.) in blocking solution for 1 hour at 37° C. Cells are washed three times with D-PBS and then incubated with a 1:1000 dilution of streptavidin conjugated to β-galactosidase (Bethesda Research Laboratories) for 1 hour at 37° C. The cells are washed three times with D-PBS for 5 minutes each. The amount of β-galactosidase bound to the specific monoclonal antibody is determined by developing the plate in a solution of 3.3 mM chlorophenolred-β-D-galactopyranoside, 50 mM sodium phosphate, 1.5 mM MgCl2; pH=7.2 for 2 to 15 minutes at 37° C. The concentration of the product is determined by measuring the absorbance at 575 nm in an ELISA microtiter plate reader. […]
(§3) Cells grown in 96-well plates were washed three times with Opti-MEM (GIBCO, Grand Island, N.Y.) prewarmed to 37° C. […] ICAM-1 expression was determined as described in Example 1. […]

[5] = tested on: ICAM-1; experiment: ELISA of ICAM-1 expression in A431 cells; type: cell-based; settings: human epidermal carcinoma A431 cells
Procedure: as §2, §3

[6] = tested on: ICAM-1 mRNA; experiment: Northern blot of ICAM-1 mRNA in C8161 cells; type: cell-based, human; settings: Northern blot analysis
Procedure: as §1

[7] = tested on: ICAM-1; experiment: ELISA screening for ICAM-1 expression in interleukin-1β-stimulated cells (HUVEC and A549); type: cell-based, human; settings: interleukin-1β-stimulated cells, two cell lines (HUVEC, A549)
[8] = tested on: C8161 human melanoma cells; experiment: Experimental metastasis assay of oligonucleotide-treated C8161 cells in athymic nude mice; type: in vivo
Procedure: To evaluate the role of ICAM-1 in metastasis, experimental metastasis assays were performed by injecting 1×10^5 C8161 cells into the lateral tail vein of athymic nude mice. […] Assoc. Cancer Res. 1990, 13, 353].
After 4 weeks, mice were sacrificed, organs were fixed in Bouin's fixative and metastatic lesions on lungs were scored with the aid of a dissecting microscope. Four-week-old female athymic nude mice (Harlan Sprague Dawley) were used. Animals were maintained under the guidelines of the NIH. Groups of 4-8 mice each were tested in experimental metastasis assays.
Treatment of C8161 cells with antisense oligonucleotides ISIS 1570 and ISIS 2302, complementary to ICAM-1, was performed in the presence of the cationic lipid, Lipofectin (Gibco/BRL, Gaithersburg, Md.). Antisense oligonucleotides were synthesized as described in Example 3. Cells were seeded in 60 mm tissue culture dishes at 10^6 cells/ml and incubated at 37 °C for 3 days, washed with OPTI-MEM (Gibco/BRL) 3 times and 100 μl of OPTI-MEM medium was added to each well. 0.5 μM oligonucleotide and 15 μg/ml lipofectin were mixed at room temperature for 15 minutes. 25 μl of the oligonucleotide-lipofectin mixture was added to the appropriate dishes and incubated at 37° C. for 4 hours. The oligonucleotide-lipofectin mixture was removed and replaced with DME-F12 medium containing 10% fetal calf serum. After 4 hours, 500 U/ml TNF-α was added to the appropriate wells and incubated for 18 hours at which time cells were removed from the plates, counted and injected into athymic nude mice.

| Molecule | reduction in mean leukocyte count [1] | cell surface expression of ICAM-1 [2] | toxicity to stored human corneas [3] | endothelial cell density by specular microscopy ([3]; 200 or 400 μg/ml in OPTISOL, after 2 or 8 days of storage, vs control) | inhibition of ICAM-1 expression [4] | inhibition of ICAM-1 expression [5] | ICAM-1 mRNA levels [6] | inhibition of ICAM-1 expression, relative activity in words [7] | No. Lung Metastases per Mouse (Mean ± S.E.M.) ([8]; C8161 cells treated with 0.5 μM oligonucleotide + Lipofectin + TNF-α, Lipofectin + TNF-α 81 ± 8) | No. Lung Metastases per Mouse (Mean ± S.E.M.) ([8]; C8161 cells treated with 0.5 μM oligonucleotide + Lipofectin, no TNF-α, Lipofectin only 64 ± 13) |
| --- | --- | --- | --- | --- | --- | --- | --- | --- | --- | --- |
| COc1ccc2c(c1)c(CC(=O)O)c(C)n2C(=O)c1ccc(Cl)cc1 [indomethacin] | 79% |  |  |  |  |  |  |  |  |  |
| ISIS 2302: P=S, human ICAM-1 3′-Untranslated (2114-2133), SEQ ID NO 22 (antisense dG*dC*dC*dC*dA*dA*dG*dC*dT*dG*dG*dC*dA*dT*dC*dC*dG*dT*dC*dA) |  | decreased cell surface expression of ICAM-1 | not markedly toxic | no difference in endothelial cell density | inhibit ICAM-1 expression | inhibit ICAM-1 expression | markedly reduced | most active of the series, with activity comparable to that of ISIS 1939 | 31 ± 8 | 23 ± 6 |
